What is called pKi is the negative decadic logarithm of the Ki, by convention in mol/L.

These results are taken from patent US20090304663A1, “USE OF GSK-3 INHIBITORS FOR THE TREATMENT OF PROSTATE CANCER” (IMPERIAL INNOVATIONS LIMITED, priority 2004, published 2009).

pKi: −log10 of the molar value. “Also recorded” adds a separate entry of the source. Like-named read-outs stand apart in the source and are kept apart here.

Assay [1] relates to panel of 79 commonly studied protein kinases, including several PKC isozymes. To be noted: in words; cited from earlier work.
The target in a further assay is GSK-3. To be noted: cited from earlier work.
The next assay addresses human GSK-3. The note with it: cited from earlier work.
Assay [2] relates to inositol monophosphatases. The note with it: in words; cited from earlier work.
The test system of assay [3] is AR transcriptional activity. Put plainly: AR transcriptional activity, MMTV-Luciferase reporter in CWR-R1 cells. It is filed as cell-based. (In general: A reporter such as luciferase makes a cellular process visible.)
The next assay has as its system 22Rv1 cells. Put plainly: cell growth assay, 22Rv1 cells. It is filed as cell-based.
The test system of another assay is AR protein. As to the kind of experiment: AR protein level by western blotting in CWR-R1 cells. The assay is classed as cell-based. To be noted: 5 μM SB216763 or 20 μM SB415286, 24 h, western blot. How it is done:
FIG. 6: Inhibition of GSK-3 leads to a reduction in AR protein levels. […] Western blots of whole cell extracts were probed for AR (upper panels) and reprobed for γ-tubulin as an internal loading control (lower panels).
Cells were grown to 50-70% confluence in 100 mm dishes or 6-well plates. Lysates were obtained using the following steps: Cells were rinsed in cold TBS, lysed in modified RIP A buffer (0.5% deoxycholate, 1% Triton X-100, 20 mM Tris pH 8.0, 0.1% SDS, 100 mM NaCl, 50 mM NaF) or Nonidet P-40 buffer (1% NP-40, 20 mM Tris pH 8.0, 150 mM NaCl, 50 mM NaF) for 10 min and centrifuged for 12 min at 15,000×g. Cell extracts were then mixed with an equal volume of SDS sample buffer (Sigma Aldrich) and heated to 95° C. for 3 min. For immunoprecipitation (IP) assays in transfected COS7 cells, cell extracts were prepared using NP-40 lysis buffer, incubated with primary antibody for 1 h on ice. This was followed by 30 min incubation with 20 μl protein A/G-agarose (Cambridge Biosciences) on a rotating wheel in the cold room. After 4 washes in lysis buffer and 1 wash in TBS, the beads were resuspended in 10 μl of SDS sample buffer and heated as above. […]

A further assay concerns CWR-R1 cells. Put plainly: cell growth assay, CWR-R1 cells. To be noted: for CWR-R1 cell growth (number of cells): 5 μM SB216763 or 20 μM SB415286, up to 6 days. The assay is classed as cell-based. The procedure:
(a) CWR-R1 cells were grown in the presence of carrier (ut). […] The experiment was done twice in triplicate and the error bars indicate standard deviation. […] The experiment was done in triplicate and the error bars indicate standard deviation. […] The number of cells was counted after 72 h (or after 5 days for LNCaP cells). Experiments were done in triplicate and the error bars indicate standard deviation. […] Cell growth assays were conducted according to Gregory et al, (2001). Briefly, cells (1.5×10^5/well) were plated in 12-well plates (three wells were used for each condition) and allowed to attach overnight. […] Cells were collected by trypsinisation at the indicated times and were counted using a Coulter Counter or using a haemocytometer.

The next assay relates to PC3 cells. Put plainly: cell growth assay, PC3 cells. It is filed as cell-based. To be noted: 5 μM SB216763, normal growth medium, 72 h. The procedure: (§1) The number of cells was counted after 72 h (or after 5 days for LNCaP cells). Experiments were done in triplicate and the error bars indicate standard deviation. […] Cell growth assays were conducted according to Gregory et al, (2001). Briefly, cells (1.5×10^5/well) were plated in 12-well plates (three wells were used for each condition) and allowed to attach overnight. […] Cells were collected by trypsinisation at the indicated times and were counted using a Coulter Counter or using a haemocytometer.

In assay [4] the test system is β-catenin/Tcf transcriptional activity. As to the kind of experiment: β-catenin/Tcf transcriptional activity, pOT-Luciferase reporter in CWR-R1 cells. It is filed as cell-based. The note with it: 20 μM SB415286 or 5 μM SB216763, 24 h, normal growth medium.
In another assay the test system is LNCaP cells. As to the kind of experiment: cell growth assay, LNCaP cells. It is filed as cell-based. To be noted: 5 μM SB216763, hormone-depleted medium with 1 nM R1881, 5 days. How it is done:
as §1

The subject of another assay is DU145 cells. Put plainly: cell growth assay, DU145 cells. The assay is classed as cell-based. To be noted: 5 μM SB216763, normal growth medium, 72 h. The procedure:
as §1

Where [5] appears, read: CWR-R1 cells, 10 nM R1881, 20 μM SB415286 or 5 μM SB216763, 24 h.

In the case of `O=C1NC(=O)C(c2cn(CCCO)c3ncccc23)=C1c1cnccn1` [3-(1-(3-Hydroxypropyl)-1H-pyrrolo[2,3-b]pyridin-3-yl]-4-pyrazin-2-yl-pyrrole-2,5-dione], the “inhibition of the kinase panel” value in assay [1] is reported as “minimally inhibits”.
Turning to `Cc1cc(Nc2nc(-c3ccccc3)nc3ccccc23)n[nH]1` [5-Methyl-1H-pyrazol-3-yl)-(2-phenylquinazolin-4-yl)amine], the pKi at GSK-3 (ATP-binding site inhibitor) was 7.62.
For the compound `Cc1c[nH]c(-c2cnc(NCCNc3ccc(C#N)cn3)nc2-c2ccc(Cl)cc2Cl)n1` [CHIR 99021], at human GSK-3, the pKi is […].
On to `[Cl-].[Li+]` [Lithium chloride, lithium chloride], for which, in the assay on GSK-3 (in words), the IC50 value entry is “high”. In assay [2], the “inhibition of inositol monophosphatases relative to GSK-3” value was “to a similar extent”.
For `C[C@]1(O)CC[C@H]2[C@@H]3CCC4=CC(=O)CCC4=C3C=C[C@@]21C` [R1881, methyltrienolone], in assay [3], the AR transcriptional activity result is “increase”. Also, the “growth of 22Rv1 cells” value with 22Rv1 cells (hormone-depleted medium, 10^−12 M or 10^−9 M R1881, 72 h) is listed as “stimulated”.
As for `Cn1cc(C2=C(c3ccc(Cl)cc3Cl)C(=O)NC2=O)c2ccccc21` [SB216763], in the assay with AR protein, the “protein level of AR” value was “reduced”. For the same compound, in the assay with CWR-R1 cells (5 μM SB216763, normal growth medium, 72 h), the “growth of CWR-R1 cells (number of cells)” value is “significantly reduced”. In addition, the “CWR-R1 cell growth (number of cells)” value in the assay on CWR-R1 cells is “repressed”. Also, the “concentration at which inhibitory effects on cell growth were maximal (optimal dose)” value with CWR-R1 cells (CWR-R1 cells, 72 h, complete growth medium) was found to be 3 µM. The “PC3 cell growth (number of cells)” value with PC3 cells is “did not significantly affect”. Further, in assay [3] (setting [5]), the AR transcriptional activity entry is listed as “reduced”. The β-catenin/Tcf-dependent transcriptional activity entry in assay [4] is “increased”. In addition, the “growth of LNCaP cells (number of cells)” value in the assay on LNCaP cells is reported as “significantly reduced; also recorded: weakly inhibited”. For the same compound, the “DU145 cell growth (number of cells)” value with DU145 cells was “did not significantly affect”. In addition, the “growth of 22Rv1 cells (number of cells)” value in the assay on 22Rv1 cells (5 μM SB216763, hormone-depleted medium with 1 nM R1881, 72 h) was “significantly reduced”. In addition, the “R1881-stimulated growth of 22Rv1 cells” value with 22Rv1 cells (5 μM SB216763, hormone-depleted medium with R1881, 72 h) is “blocked”. In addition, in the assay with 22Rv1 cells (5 μM SB216763, hormone-depleted medium, absence of hormone, 72 h), the “hormone-independent proliferation of 22Rv1 cells” value is reported as “inhibited”.
Regarding `O=C1NC(=O)C(c2ccccc2[N+](=O)[O-])=C1Nc1ccc(O)c(Cl)c1` [SB415286], the “protein level of AR” value in the assay on AR protein is listed as “reduced”. In the assay on CWR-R1 cells, the “CWR-R1 cell growth (number of cells)” value is “repressed”. The “dose dependence of inhibitory effects on CWR-R1 cell growth” value in the assay on CWR-R1 cells (up to 50 μM, data not shown) was “increased with dose up to the maximal dose tested”. Besides, the AR transcriptional activity entry in [3] (setting [5]) is reported as “reduced”.
With CHIR 98014, on human GSK-3, the pKi was 9.06.
